Assay results: patent US10577363B2, “Substituted piperidine compounds” (EPIZYME, INC., priority 2014, dated 2020)

The compounds below were run against SMYD3 (Homo sapiens (Human), UniProt Q9H7B4) (assay: SMYD3 biochemical assay (SPA, 3H-SAM methylation of MEKK2 protein substrate)). Settings: read-out: SMYD3 Biochem IC50 (μM)*.
How it was run: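 Full-length native human SMYD3 (E. coli-expressed, tags removed) preincubated with compounds 30 min at room temperature, then reaction started with 3H-SAM and GST-tagged MEKK2 protein in 25 mM Tris-Cl pH 8.0, 1 mM TCEP, 0.005% BSG, 0.005% Tween 20. Quenched with unlabelled SAM (100 uM final); 3H-MEKK2 counted by SPA.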

Question: C[C@@H]1CC(NC(=O)c2cc(C3CC3)on2)CCN1C(=O)[C@H]1CCC[C@H](N)C1 (stereo partly drawn) [compound 174, N-((2R)-1-((1S,3S)-3-aminocyclohexane-1-carbonyl)-2-methylpiperidin-4-yl)-5-cyclopropylisoxazole-3-carboxamide] was tested. Which IC50 did it give?
Answer: Its IC50 is 0.728 µM.

Question: For C[C@H]1CC(NC(=O)c2cc(C3CC3)on2)CCN1C(=O)CCC1CCNC1 (stereo partly drawn) [compound 176, 5-cyclopropyl-N-((2S)-2-methyl-1-(3-(pyrrolidin-3-yl)propanoyl)piperidin-4-yl)isoxazole-3-carboxamide], which IC50 is on record?
Answer: Its IC50 is 0.624 µM.

Question: With C[C@H]1CC(NC(=O)c2cc(C3CC3)on2)CCN1C(=O)C1CNCC(O)C1 (stereo partly drawn) [compound 177, 5-cyclopropyl-N-((2S)-1-(5-hydroxypiperidine-3-carbonyl)-2-methylpiperidin-4-yl)isoxazole-3-carboxamide] as the compound, how does the IC50 read?
Answer: Its IC50 is over 10 µM.

Question: Which IC50 does the source give for C[C@H]1CC(NC(=O)c2cc(C3CC3)on2)CCN1C(=O)C1CC2(CCNC2)C1 (stereo partly drawn) [compound 178, 5-cyclopropyl-N-((2S)-2-methyl-1-(6-azaspiro[3.4]octane-2-carbonyl)piperidin-4-yl)isoxazole-3-carboxamide] here?
Answer: The IC50 was 2.02 µM.

Question: How did the IC50 turn out when C[C@H]1CC(NC(=O)c2cc(C3CC3)on2)CCN1C(=O)C1CC12CCNCC2 (stereo partly drawn) [compound 179, 5-cyclopropyl-N-((2S)-2-methyl-1-(6-azaspiro[2.5]octane-1-carbonyl)piperidin-4-yl)isoxazole-3-carboxamide] was run?
Answer: The IC50 was 1.42 µM.

Question: With C[C@@H]1CC(NC(=O)c2cc(C3CC3)on2)CCN1C(=O)CCC1CCNC1 (stereo partly drawn) [compound 180, 5-cyclopropyl-N-((2R)-2-methyl-1-(3-(pyrrolidin-3-yl)propanoyl)piperidin-4-yl)isoxazole-3-carboxamide] as the compound, how does the IC50 read?
Answer: Its IC50 is 0.953 µM.

Question: For N[C@H]1CC[C@@H](C(=O)N2CCC(NC(=O)c3cc(C4CC4)on3)CC2)C1 [compound 182, N-(1-((1R,3S)-3-aminocyclopentane-1-carbonyl)piperidin-4-yl)-5-cyclopropylisoxazole-3-carboxamide], which IC50 is on record?
Answer: The IC50 was 4.79 µM.

Question: For C[C@@H]1C[C@@H](NC(=O)c2cc(C3CC3)on2)CCN1C(=O)CCCCN [compound 184, N-((2R,4S)-1-(5-aminopentanoyl)-2-methylpiperidin-4-yl)-5-cyclopropylisoxazole-3-carboxamide], which IC50 is on record?
Answer: Its IC50 is 2.67 µM.

Question: Which IC50 does the source give for C[C@@H]1C[C@@H](NC(=O)c2cc(C3CC3)on2)CCN1S(=O)(=O)Cc1ccccc1 [compound 185, N-((2R,4S)-1-(benzylsulfonyl)-2-methylpiperidin-4-yl)-5-cyclopropylisoxazole-3-carboxamide] here?
Answer: The IC50 was 4.31 µM.

Question: How did the IC50 turn out when C[C@@H]1C[C@@H](NC(=O)c2cc(C3CC3)on2)CCN1S(=O)(=O)CC(F)(F)F [compound 186, 5-cyclopropyl-N-((2R,4S)-2-methyl-1-((2,2,2-trifluoroethyl)sulfonyl)piperidin-4-yl)isoxazole-3-carboxamide] was run?
Answer: Its IC50 is over 10 µM.

Question: With C[C@H]1C[C@H](NC(=O)c2cc(C3CC3)on2)CCN1S(=O)(=O)CCCN [compound 188, N-((2S,4R)-1-((3-aminopropyl)sulfonyl)-2-methylpiperidin-4-yl)-5-cyclopropylisoxazole-3-carboxamide] as the compound, how does the IC50 read?
Answer: The IC50 was 0.0723 µM.

Question: For CC[C@@H]1CN(C(=O)[C@H]2CC[C@H](N)CC2)CC[C@@H]1NC(=O)c1cc(C2CC2)on1 [compound 190, N-((3R,4S)-1-((1r,4R)-4-aminocyclohexane-1-carbonyl)-3-ethylpiperidin-4-yl)-5-cyclopropylisoxazole-3-carboxamide], which IC50 is on record?
Answer: Its IC50 is 0.352 µM.

Question: How did the IC50 turn out when N[C@H]1CC[C@H](C(=O)N2C3CCC2CC(NC(=O)c2cc(C4CC4)on2)C3)CC1 (some centres unmarked) [compound 191, N-(8-((1r,4r)-4-aminocyclohexane-1-carbonyl)-8-azabicyclo[3.2.1]octan-3-yl)-5-cyclopropylisoxazole-3-carboxamide] was run?
Answer: The IC50 was over 10 µM.

Question: With CCOC(=O)[C@@H]1CC(NC(=O)c2cc(C3CC3)on2)CCN1C(=O)[C@H]1CC[C@H](N)CC1 (stereo partly drawn) [compound 192, ethyl (2S)-1-((1r,4S)-4-aminocyclohexane-1-carbonyl)-4-(5-cyclopropylisoxazole-3-carboxamido)piperidine-2-carboxylate] as the compound, how does the IC50 read?
Answer: The IC50 was 7.08 µM.

Question: C[C@@H]1CN(C(=O)CCCN)CC[C@@H]1NC(=O)c1cc(C2CC2)on1 [compound 193, N-((3R,4S)-1-(4-aminobutanoyl)-3-methylpiperidin-4-yl)-5-cyclopropylisoxazole-3-carboxamide] was tested. Which IC50 did it give?
Answer: The IC50 was 2.87 µM.

Question: With C[C@H]1CN(C(=O)CCCN)CC[C@H]1NC(=O)c1cc(C2CC2)on1 [compound 194, N-((3S,4R)-1-(4-aminobutanoyl)-3-methylpiperidin-4-yl)-5-cyclopropylisoxazole-3-carboxamide] as the compound, how does the IC50 read?
Answer: The IC50 was 1.37 µM.

Question: For C[C@@H]1CN(C(=O)CCCN)CC[C@H]1NC(=O)c1cc(C2CC2)on1 [compound 195, N-((3R,4R)-1-(4-aminobutanoyl)-3-methylpiperidin-4-yl)-5-cyclopropylisoxazole-3-carboxamide], which IC50 is on record?
Answer: The IC50 was over 10 µM.

Question: For C[C@H]1CN(C(=O)CCCN)CC[C@@H]1NC(=O)c1cc(C2CC2)on1 [compound 196, N-((3S,4S)-1-(4-aminobutanoyl)-3-methylpiperidin-4-yl)-5-cyclopropylisoxazole-3-carboxamide], which IC50 is on record?
Answer: Its IC50 is 6.91 µM.

Question: Which IC50 does the source give for NCCCC(=O)N1CCC(NC(=O)c2cc(C3CC3)on2)C(F)(F)C1 (centres unmarked) [compound 197, N-(1-(4-aminobutanoyl)-3,3-difluoropiperidin-4-yl)-5-cyclopropylisoxazole-3-carboxamide] here?
Answer: The IC50 was over 10 µM.

Question: Which IC50 does the source give for NCCCC(=O)N1CCC(NC(=O)c2cc(C3CC3)on2)C2(CC2)C1 (centres unmarked) [compound 198, N-(5-(4-aminobutanoyl)-5-azaspiro[2.5]octan-8-yl)-5-cyclopropylisoxazole-3-carboxamide] here?
Answer: The IC50 was 0.83 µM.

Question: For NCCCC(=O)N1C2CCC1CC(NC(=O)c1cc(C3CC3)on1)C2 (centres unmarked) [compound 199, N-(8-(4-aminobutanoyl)-8-azabicyclo[3.2.1]octan-3-yl)-5-cyclopropylisoxazole-3-carboxamide], which IC50 is on record?
Answer: Its IC50 is 0.678 µM.

Question: Which IC50 does the source give for C[C@H]1CC(NC(=O)c2cc(C3CC3)on2)CCN1C(=O)N1CCC(N)CC1 (stereo partly drawn) [compound 201, N-((2S)-1-(4-aminopiperidine-1-carbonyl)-2-methylpiperidin-4-yl)-5-cyclopropylisoxazole-3-carboxamide] here?
Answer: Its IC50 is 2.23 µM.

Question: With CC1C(NC(=O)c2cc(C3CC3)on2)CCN(C(=O)[C@H]2CC[C@H](N)CC2)C1C (some centres unmarked) [compound 203, N-(1-((1r,4r)-4-aminocyclohexane-1-carbonyl)-2,3-dimethylpiperidin-4-yl)-5-cyclopropylisoxazole-3-carboxamide] as the compound, how does the IC50 read?
Answer: The IC50 was 0.379 µM.

Question: With C[C@H]1CC(NC(=O)c2cc(C3CC3)on2)CCN1C(=O)CC1(CN)CCC1 (stereo partly drawn) [compound 204, N-((2S)-1-(2-(1-(aminomethyl)cyclobutyl)acetyl)-2-methylpiperidin-4-yl)-5-cyclopropylisoxazole-3-carboxamide] as the compound, how does the IC50 read?
Answer: The IC50 was 4.68 µM.

Question: For C[C@@H]1CC(NC(=O)c2cc(C3CC3)on2)CCN1C(=O)CC1(CN)CCC1 (stereo partly drawn) [compound 205, N-((2R)-1-(2-(1-(aminomethyl)cyclobutyl)acetyl)-2-methylpiperidin-4-yl)-5-cyclopropylisoxazole-3-carboxamide], which IC50 is on record?
Answer: The IC50 was 1.99 µM.

Question: CC1CNCCC1CC(=O)N1CCC(NC(=O)c2cc(C3CC3)on2)C[C@@H]1C (stereo partly drawn) [compound 206, 5-cyclopropyl-N-((2S)-2-methyl-1-(2-(3-methylpiperidin-4-yl)acetyl)piperidin-4-yl)isoxazole-3-carboxamide] was tested. Which IC50 did it give?
Answer: Its IC50 is 1.59 µM.
